Article PMC10608614, “Biochemical Insights into a Novel Family 2 Glycoside Hydrolase with Both β-1,3-Galactosidase and β-1,4-Galactosidase Activity from the Arctic” (Marine Drugs, 2023)
Blank lines part the entries; values can stand above or below the molecule they belong to.

Experiments:
[1] = target: T1, rMaBGA (Marinomonas sp. BSi20584, UniProt Z9SNG8Y577); test: steady-state kinetics, nonlinear Michaelis-Menten fit; galactose by coupled enzymatic assay; type: biochemical; details: pH and temperature not stated
T1 construct: predicted signal peptide (first 28 aa) removed; codon-optimised, pET-28a(+), E. coli BL21(DE3), Ni-NTA purified, tag not reported cut; about 100 kDa on SDS-PAGE
T1 sequence (Z9SNG8Y577 29-897): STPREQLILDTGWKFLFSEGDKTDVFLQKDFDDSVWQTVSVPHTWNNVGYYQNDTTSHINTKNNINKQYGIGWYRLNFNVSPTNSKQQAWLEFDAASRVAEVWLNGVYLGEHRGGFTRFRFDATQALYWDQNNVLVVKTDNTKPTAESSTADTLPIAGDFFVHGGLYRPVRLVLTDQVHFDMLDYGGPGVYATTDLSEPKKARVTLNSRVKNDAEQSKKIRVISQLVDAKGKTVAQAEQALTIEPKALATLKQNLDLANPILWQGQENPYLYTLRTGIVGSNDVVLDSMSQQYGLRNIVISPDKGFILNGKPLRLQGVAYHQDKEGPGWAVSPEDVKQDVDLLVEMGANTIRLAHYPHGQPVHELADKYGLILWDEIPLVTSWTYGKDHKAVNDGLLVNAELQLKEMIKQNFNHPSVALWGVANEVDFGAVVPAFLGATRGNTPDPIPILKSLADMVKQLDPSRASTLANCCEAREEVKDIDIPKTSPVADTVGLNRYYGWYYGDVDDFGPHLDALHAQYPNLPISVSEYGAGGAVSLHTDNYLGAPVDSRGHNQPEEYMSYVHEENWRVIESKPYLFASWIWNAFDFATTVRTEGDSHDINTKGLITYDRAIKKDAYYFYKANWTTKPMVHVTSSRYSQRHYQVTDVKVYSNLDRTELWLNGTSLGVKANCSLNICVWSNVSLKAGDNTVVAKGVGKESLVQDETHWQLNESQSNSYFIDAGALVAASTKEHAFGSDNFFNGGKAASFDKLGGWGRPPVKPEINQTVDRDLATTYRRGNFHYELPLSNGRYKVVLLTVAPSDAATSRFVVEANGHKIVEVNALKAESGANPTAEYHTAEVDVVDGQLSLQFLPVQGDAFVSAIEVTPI
Excerpt: steady-state kinetics, nonlinear Michaelis-Menten fit; galactose by coupled enzymatic assay on rMaBGA

[2] = target: T1, rMaBGA; test: steady-state kinetics, nonlinear Michaelis-Menten fit; o-nitrophenol absorbance at […] nm; type: biochemical; details: 0.1–10 mM substrate; standard assay 10 mM PBS, 30 °C (not restated for kinetics)

Km ([1]; 1–40 mM substrate): 2110 ± 484 µM
SMILES: CC(=O)N[C@H]1C(O)O[C@H](CO)[C@@H](O)[C@@H]1O[C@@H]1O[C@H](CO)[C@H](O)[C@H](O)[C@H]1O (stereo partly drawn) [Galβ-(1,3)-GlcNAc]

Km ([1]; 1–50 mM substrate): 7020 ± 1180 µM
SMILES: CC(=O)N[C@H]1C(O)O[C@H](CO)[C@@H](O[C@@H]2O[C@H](CO)[C@H](O)[C@H](O)[C@H]2O)[C@@H]1O (stereo partly drawn) [Galβ-(1,4)-GlcNAc]

Km [2]: 294 ± 44 µM
SMILES: O=[N+]([O-])c1ccccc1O[C@@H]1O[C@H](CO)[C@H](O)[C@H](O)[C@H]1O [ONPG]
